Results reported in paper PMC4449000, “Acyclovir Has Low but Detectable Influence on HLA-B*57:01 Specificity without Inducing Hypersensitivity” (PLoS ONE, 2015).
Where “and” joins values, the source holds several entries; their conditions need not be identical. Equal entries are not always repeated. Structures can show the parent of a compound that is named as a salt. Where two headings read alike, the source gives them in different places. Values belong to the molecule of their own block, whether it stands above or below them. Ends that are not written are not given here.

Tests used:
[1] = tested on: HLA-B*57:01 single allele transfected 721.221 cell line; conditions: abacavir; not measured in this paper, no reference printed at b57; cited from earlier work
[2] = molecular target: HLA-B*58:01 (Homo sapiens, UniProt P01889, A329T/C349S/D201E/D98Y/E176V/E187L/E204Q/E69T/G107R/I218V/I90N/K202T/L105A/L119I/N104I/N87E/Q89R/Q94S/R106L/R155S/R180L/R86G/S101N/S121R/S35A/S48A/T118I/V127L/V306I/V36M/Y140S/Y91M); assay: Direct binding of radiolabeled […] to HLA-B*58:01 (control); conditions: control allele (Fig 6B)
Method: (§1) Quantitative assays to measure the binding affinity of peptides to purified HLA-B*57:01 molecules based on the inhibition of binding of a radiolabeled standard peptide were performed as previously described. Briefly, 1–10 nM of radiolabeled peptide was co-incubated at room temperature with 1 nM to 1 μM purified HLA-B*57:01 in the presence of 1–3 μM human β2-microglobulin (Scripps Laboratories; San Diego, CA) and a mixture of protease inhibitors. After a 2-day incubation, binding of the radiolabeled peptide to the MHC class I molecule was determined by capturing MHC/peptide complexes on Greiner Lumitrac 600 microplates (Greiner Bio-One; Monroe, North Carilina) coated with the W6/32 antibody, and measuring bound counts per minute (cpm) using the TopCount microscintillation […] counter (PerkinElmer; Waltham, Massachusetts). For competition assays, the concentration of peptide yielding IC50 of the binding of the radiolabeled peptide was calculated. Peptides were typically tested at six different concentrations covering a 100,000-fold dose range.
(§2) For direct binding studies in the absence of a competitor peptide, a purified peptide with sequence […] was ordered from Synthetic Biomolecules (San Diego, CA) and its affinity for either HLA-B*57:01 or HLA-B*58:01 was tested in the presence or absence of abacavir, or acyclovir, in a dose dependent manner.

[3] = molecular target: T1, purified HLA-B*57:01 (Homo sapiens, UniProt P01889, D201E/D98Y/E176V/E187L/E204Q/E69M/E70A/G107R/I90N/K202T/L105A/L119I/N104I/N87E/Q89R/Q94S/R106L/R155S/R180L/R86G/S101N/S121V/S35A/S48A/T118I/V36M/Y140S/Y91M); conditions: previously observed; cited from earlier work
[4] = molecular target: HLA-B*57:01 (Homo sapiens, UniProt P01889, D201E/D98Y/E176V/E187L/E204Q/E69M/E70A/G107R/I90N/K202T/L105A/L119I/N104I/N87E/Q89R/Q94S/R106L/R155S/R180L/R86G/S101N/S121V/S35A/S48A/T118I/V36M/Y140S/Y91M); assay: Direct binding of radiolabeled […] to HLA-B*57:01 without competitor peptide; conditions: increasing doses of drug, four experimental runs in triplicates (Fig 6A)
Method: as §1, §2

[5] = molecular target: T1, purified HLA-B*57:01; assay: HLA binding assay: inhibition of binding of a radiolabeled standard peptide to purified HLA-B*57:01 (competition); conditions: for number of the 7 peptides ending in I with increased affinity for HLA-B*57:01: 7 individual peptides with I at P9, two independent runs in triplicates (Fig 5); for IC50: Mean ± SEM, S5 Fig, unit inferred
[6] = tested on: HLA-B*57:01 positive PBMC; assay: Culture and detection of drug responsive T cells (intracellular IFN-γ, flow cytometry); format: cell-based, human; conditions: 10 μg/mL drug, 14 day culture, restimulation with drug treated C1R.B57; two of two donors
Method: Drug responsive short-term T cell lines were produced from cryopreserved PBMC, as previously described. […] From day 3 and every 3 days, 50% of media was replaced and 20 U/ml of recombinant human interleukin (IL)-2 (Peprotech) was added to cultures. […] Samples were surface labeled for CD4 and CD8 expression on ice and then fixed and permeabilized for the detection of intra-cellular IFN-γ, as previously described. Abacavir responsive cells were then detected using flow cytometry (Gallios; Beckman Coulter). Lymphocytes were gated on the basis of forward and side scatter properties. The lymphocyte gate was then gated for CD8, but not CD4, positivity using a Boolean logic gate. The frequency of CD8 and IFN-γ double positive cells was determined using Kaluza software (Beckman Coulter).

[7] = tested on: HLA-B*57:01 single allele transfected 721.221 cell line; assay: Peptide elution and LC-MS identification from drug-treated cells; format: cell-based, human
Method: For elution studies, 4–5 x 10^9 cells from the HLA-B*57:01 single allele transfected 721.221 cell line were used. Treated cells were incubated with acyclovir at a concentration of 500 μg/mL for 14 hr at 37°. Cells were harvested and stored at -80°C. Upon thawing, cells were lysed using cell lysis buffer in the presence of protease inhibitors. The lysate was centrifuged at 100,000 x g for 1 hr and the supernatant was collected and passed through a 0.8/0.2 μm filter (VWR International, TX). The filtrate was collected and passed through a sepharose CL-4B (Sigma-Aldrich, MO) column to capture any remaining materials in the lysate that may clog the antibody columns. The filtrate was then passaged through a column packed with protein A sepharose (PAS) beads (sigma) coated with MK-D6 (MTCC HB-3, VA) antibody which served to as an irrelevant antibody (specific for the mouse class II molecule, I-A^d) used to derive a negative control peptide extract. Next, the filtrate was passed through a second PAS column coated with W6/32 antibody (MTCC HB-95) which captures HLA class I molecules. The columns were washed sequentially with: 1) 2 column volumes of lysis buffer, 2) 20 column volumes of 20 mM Tris-HCL (pH 8.0, 150 mM NaCl), 3) 20 column volumes of 20 mM Tri-HCl (pH 8.0, 1.0 M NaCl), and 4) 20 column volumes of 20 mM Tris-HCl (pH 8.0), and then eluted with 4 column volumes of 0.2 M glacial acetic acid. The eluted peptides were then collected and spun at 3,500g at 4°C until 98% of the solution had passed through Millipore ultrafiltration units with a 3,500 Da cut-off (EMD Millipore, MA) to exclude β-2 microglobulin. The filtrate was then collected and concentrated in vacuo for LC-MS analysis.
Peptides were analyzed by nanoflow high-performance liquid chromatography (HPLC)/microelectrospray ionization, coupled directly to a Thermo Fisher Scientific FT-ICR mass spectrometer, equipped with a home-built, front-end electron transfer dissociation (FETD) source. An aliquot of peptide sample was taken to dryness in a vacuum concentrator. Peptides were amidated in a solution that contained 1M histamine-HCl (20 μL) in 1M pyridine-HCl buffer and 0.1M EDC in pyridine-HCl buffer. The solution was sonicated for 3 hours before being dried in a vacuum concentrator and then reconstituted in 0.1% acetic acid.
Data were acquired as previously described. In brief, a pre-column, loaded with 5×10^7 to 2×10^8 cell equivalents of HLA-B*57:01 eluted peptides was connected with polytetrafluoroethylene tubing (0.06-in. o.d. and 0.012-in. i.d.; Zeus Industrial Products) to the end of an analytical HPLC column (360 μm o.d.×50 μm i.d.) containing 6–7 cm of C18 reverse-phase packing material (5-μm particles; YMC). […]

Molecule: Nc1nc(NC2CC2)c2ncn([C@H]3C=C[C@@H](CO)C3)c2n1 [abacavir, Abacavir sulfate]
peptides with a C-terminal valine presented exclusively in the presence of the drug [1]: 15 | effect of drug on binding of […] to HLA-B*58:01 ([2]; radiolabeled […]): unaffected | increase in affinity for I and V peptides in the presence of abacavir (PSCPL) [3]: 10 fold | increase in the level of bound peptide […] on HLA-B*57:01 ([4]; radiolabeled […]): up to 5 fold | number of the 7 peptides ending in I with increased affinity for HLA-B*57:01 [5]: all seven | largest change / increase of peptide binding affinity (IC50) for HLA-B*57:01 in the presence of the drug ([5]; individual peptides, summary statement): ≤ 1000 fold and 1,000 fold | drug specific CD8+/IFN-γ+ T-cell response in PBMC primed and restimulated with the same drug [6]: expanded population of CD8 positive / IFN-γ positive T-cells

Molecule: Nc1nc2c(ncn2COCCO)c(=O)[nH]1 [acyclovir]
effect of drug on binding of KAAKYRVSV to HLA-B*58:01 ([2]; radiolabeled KAAKYRVSV): unaffected | increase in the level of bound peptide KAAKYRVSV on HLA-B*57:01 ([4]; radiolabeled KAAKYRVSV): 2 fold | number of the 7 peptides ending in I with increased affinity for HLA-B*57:01 [5]: two | change in HLA-B*57:01 affinity of peptides ending in C ([5]; individual peptides with C at P9 (S4 Fig)): None of the peptides ending in C showed any change | effect on HLA-B*57:01 binding affinity for three 9-mer peptides with a C-terminal valine ([5]; screen of seven drugs, one experimental run in quadruplicates (S3 Fig)): small but consistent increase | drug specific CD8+/IFN-γ+ T-cell response in PBMC primed and restimulated with the same drug [6]: could not detect any acyclovir specific response | unique peptide sequences identified from the drug treated sample only ([7]; acyclovir 500 μg/mL, 14 hr, 37°, excludes 91 sequences present in both samples): 169 | number of eluted peptides with a C-terminal isoleucine in the presence of the drug ([7]; acyclovir 500 μg/mL, 14 hr, includes three peptides present in both samples, vs four in untreated, p = 0.073): twelve | Number of peptides that do not have isoleucine at C terminus (Treated) ([7]; acyclovir treated cells, peptides found in both treated and untreated samples not included): 160 | Number of peptides that have isoleucine at C terminus (Treated) ([7]; acyclovir treated cells, peptides found in both treated and untreated samples not included, one-sided Fisher's exact test p = 0.0726): 9

IC50 ([5]; 0.5 mg/mL acyclovir, p < 0.01 vs vehicle, read-out: IC-50 for HLA-B*57:01, 0.5 mg/mL acyclovir): 7.1 ± 1 nM | IC50 ([5]; vehicle, read-out: IC-50 for HLA-B*57:01, vehicle): 13.7 ± 1.3 nM
Molecule: RARQLNYTI
